target: interaction between p53 and MDM2 proteins (Homo sapiens, UniProt Q00987); experiment: HTRF assay of inhibition of p53-MDM2 interaction; type: binding; settings: GST-MDM2 and biotinylated p53 peptide, bsa: 0.02%
Method: The ability of the compounds to inhibit the interaction between p53 and MDM2 proteins was measured by an HTRF (homogeneous time-resolved fluorescence) assay in which recombinant GST-tagged MDM2 binds to a peptide that resembles the MDM2-interacting region of p53. Binding of GST-MDM2 protein and p53-peptide (biotinylated on its N-terminal end) is registered by the FRET (fluorescence resonance energy transfer) between Europium (Eu)-labeled anti-GST antibody and streptavidin-conjugated Allophycocyanin (APC).
Add 20 uL streptavidin-APC and Eu-anti-GST antibody mixture (6 nM Eu-anti-GST and 60 nM streptavidin-APC working solution) in TBS buffer with 0.2% BSA, shake at room temperature for 30 minutes and read using a TRF-capable plate reader at
If not specified, the reagents were purchased from Sigma Chemical Co.

Sequence of interaction between p53 and MDM2 proteins (Q00987 whole entry): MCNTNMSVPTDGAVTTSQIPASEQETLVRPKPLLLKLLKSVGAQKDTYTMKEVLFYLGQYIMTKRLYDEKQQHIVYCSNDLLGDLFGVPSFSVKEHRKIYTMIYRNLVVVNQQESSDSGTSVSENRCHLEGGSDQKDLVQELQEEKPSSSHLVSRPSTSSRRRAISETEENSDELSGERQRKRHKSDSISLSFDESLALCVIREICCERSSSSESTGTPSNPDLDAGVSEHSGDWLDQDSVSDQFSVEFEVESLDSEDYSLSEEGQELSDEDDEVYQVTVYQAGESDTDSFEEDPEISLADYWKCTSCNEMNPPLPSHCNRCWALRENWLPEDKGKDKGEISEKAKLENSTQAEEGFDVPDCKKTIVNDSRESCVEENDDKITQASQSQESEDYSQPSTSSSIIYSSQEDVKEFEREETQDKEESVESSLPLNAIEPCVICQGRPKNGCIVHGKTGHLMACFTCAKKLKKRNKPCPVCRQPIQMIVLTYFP

How did the IC50 turn out when CC(C)(C)C[C@@H]1N[C@@H](C(=O)Nc2ccc(C(=O)O)cc2)[C@H](c2cccc(Cl)c2F)[C@]12C(=O)Nc1cc(Cl)ncc12 (racemic) [Example 28, rac-4-((2S,3R,4S,5R)-6′-chloro-4-(3-chloro-2-fluorophenyl)-2-neopentyl-2′-oxo-1′,2′-dihydrospiro[pyrrolidine-3,3′-pyrrolo[3,2-c]pyridine]-5-ylcarboxamido)benzoic acid] was run?
Its IC50 is 10.5 nM.

COc1cc(OCCO)ccc1NC(=O)[C@@H]1N[C@@H](CC(C)(C)C)[C@@]2(C(=O)Nc3nc(Cl)ncc32)[C@H]1c1cccc(Cl)c1F (racemic) [Example 89, rac-(2S,3R,4S,5R)-2′-chloro-4-(3-chloro-2-fluorophenyl)-N-[4-(2-hydroxyethoxy)-2-methoxyphenyl]-2-neopentyl-6′-oxo-6′,7′-dihydrospiro[pyrrolidine-3,5′-pyrrolo[2,3-d]pyrimidine]-5-carboxamide] was tested. Which IC50 did it give?
The IC50 was 11.7 nM.

With COc1cc(C(=O)O)ccc1NC(=O)[C@@H]1N[C@@H](CC(C)(C)C)[C@@]2(C(=O)Nc3cc(C)ncc32)[C@H]1c1cccc(Cl)c1F (racemic) [Example 120, rac-4-((2S,3R,4S,5R)-4-(3-chloro-2-fluorophenyl)-6′-methyl-2-neopentyl-2′-oxo-1′,2′-dihydrospiro[pyrrolidine-3,3′-pyrrolo[3,2-c]pyridine]-5-ylcarboxamido)-3-methoxybenzoic acid] as the compound, how does the IC50 read?
The IC50 was 12 nM.

Which IC50 does the source give for COC(=O)c1ccc(NC(=O)[C@@H]2N[C@@H](CC(C)(C)C)[C@@]3(C(=O)Nc4cc(C)ncc43)[C@H]2c2cccc(Cl)c2F)c(OC)c1 (racemic) [Example 119, methyl rac-4-((2S,3R,4S,5R)-4-(3-chloro-2-fluorophenyl)-6′-methyl-2-neopentyl-2′-oxo-1′,2′-dihydrospiro[pyrrolidine-3,3′-pyrrolo[3,2-c]pyridine]-5-ylcarboxamido)-3-methoxybenzoate] here?
The IC50 was 11.6 nM.

With COc1cc(C(N)=O)ccc1NC(=O)[C@@H]1N[C@@H](CC(C)(C)C)[C@@]2(C(=O)Nc3cc(Cl)cnc32)[C@H]1c1cccc(Br)c1F (racemic) [Example 69, rac-(2S,3S,4S,5R)-4-(3-bromo-2-fluorophenyl)-N-(4-carbamoyl-2-methoxyphenyl)-6′-chloro-2-neopentyl-2′-oxo-1′,2′-dihydrospiro[pyrrolidine-3,3′-pyrrolo[3,2b]pyridine]-5-carboxamide] as the compound, how does the IC50 read?
Its IC50 is 12.9 nM.

For COc1cc(C(N)=O)ccc1NC(=O)[C@@H]1N[C@@H](CC(C)(C)C)[C@@]2(C(=O)Nc3cc(F)cnc32)[C@H]1c1cccc(Cl)c1F (racemic) [Example 86, rac-(2S,3S,4S,5R)-N-(4-carbamoyl-2-methoxyphenyl)-4-(3-chloro-2-fluorophenyl)-6′-fluoro-2-neopentyl-2′-oxo-1′,2′-dihydrospiro[pyrrolidine-3,3′-pyrrolo[3,2b]pyridine]-5-carboxamide], which IC50 is on record?
The IC50 was 18.7 nM.

How did the IC50 turn out when COc1cc(OCCO)ccc1NC(=O)[C@@H]1N[C@@H](CC(C)(C)C)[C@@]2(C(=O)Nc3cc(Cl)cnc32)[C@H]1c1cccc(Cl)c1F [Example 75, (2S,3S,4S,5R)-6′-chloro-4-(3-chloro-2-fluorophenyl)-N-(4-(2-hydroxyethoxy)-2-methoxyphenyl)-2-neopentyl-2′-oxo-1′,2′-dihydrospiro[pyrrolidine-3,3′-pyrrolo[3,2-b]pyridine]-5-carboxamide] was run?
Its IC50 is 6.4 nM.

How did the IC50 turn out when COc1cc2c(cn1)[C@@]1(C(=O)N2)[C@H](CC(C)(C)C)N[C@@H](C(=O)Nc2ccc(C(=O)O)cc2OC)[C@@H]1c1cccc(Cl)c1F (racemic) [Example 111, rac-4-((2S,3R,4S,5R)-4-(3-chloro-2-fluorophenyl)-6′-methoxy-2-neopentyl-2′-oxo-1′,2′-dihydrospiro[pyrrolidine-3,3′-pyrrolo[3,2-c]pyridine]-5-ylcarboxamido)-3-methoxybenzoic acid] was run?
Its IC50 is 7 nM.

For COC(=O)c1ccc(NC(=O)[C@@H]2N[C@@H](CC(C)(C)C)[C@@]3(C(=O)Nc4nc(Cl)ccc43)[C@H]2c2cccc(Cl)c2F)c(OC)c1 (racemic) [Example 35, methyl rac-4-((2S,3R,4S,5R)-6′-chloro-4-(3-chloro-2-fluorophenyl)-2-neopentyl-2′-oxo-1′,2′-dihydrospiro[pyrrolidine-3,3′-pyrrolo[2,3-b]pyridine]-5-ylcarboxamido)-3-methoxybenzoate], which IC50 is on record?
Its IC50 is 14.5 nM.

How did the IC50 turn out when COC(=O)c1ccc(NC(=O)[C@@H]2N[C@@H](CC(C)(C)C)[C@@]3(C(=O)Nc4cc(OC)ncc43)[C@H]2c2cccc(Cl)c2F)c(OC)c1 (racemic) [Example 110, methyl rac-4-((2S,3R,4S,5R)-4-(3-chloro-2-fluorophenyl)-6′-methoxy-2-neopentyl-2′-oxo-1′,2′-dihydrospiro[pyrrolidine-3,3′-pyrrolo[3,2-c]pyridine]-5-ylcarboxamido)-3-methoxybenzoate] was run?
Its IC50 is 13.6 nM.

How did the IC50 turn out when COc1cc(C(=O)O)ccc1NC(=O)[C@@H]1N[C@@H](CC(C)(C)C)[C@@]2(C(=O)Nc3c(Cl)ccnc32)[C@H]1c1cccc(Cl)c1F (racemic) [Example 124, rac-4-((2S,3S,4S,5R)-7′-chloro-4-(3-chloro-2-fluorophenyl)-2-neopentyl-2′-oxo-1′,2′-dihydrospiro[pyrrolidine-3,3′-pyrrolo[3,2-b]pyridine]-5-ylcarboxamido)-3-methoxybenzoic acid] was run?
The IC50 was 1010 nM.

For COC(=O)c1ccc(NC(=O)[C@@H]2N[C@@H](CC(C)(C)C)[C@]3(C(=O)Nc4nc(Cl)ncc43)[C@H]2c2cccc(Cl)c2F)c(OC)c1 (racemic) [Example 91, methyl rac-4-{(2S,3S,4S,5R)-2′-chloro-4-(3-chloro-2-fluorophenyl)-2-neopentyl-6′-oxo-6′,7′-dihydrospiro[pyrrolidine-3,5′-pyrrolo[2,3-d]pyrimidine]-5-ylcarboxamido}-3-methoxybenzoate], which IC50 is on record?
Its IC50 is 10.7 nM.

How did the IC50 turn out when COc1cc2c(cn1)[C@@]1(C(=O)N2)[C@H](CC(C)(C)C)N[C@@H](C(=O)Nc2ccc(C(N)=O)cc2OC)[C@@H]1c1cccc(Cl)c1F (racemic) [Example 115, rac-(2S,3R,4S,5R)-N-(4-carbamoyl-2-methoxyphenyl)-4-(3-chloro-2-fluorophenyl)-6′-methoxy-2-neopentyl-2′-oxo-1′,2′-dihydrospiro[pyrrolidine-3,3′-pyrrolo[3,2-c]pyridine]-5-carboxamide] was run?
Its IC50 is 127 nM.

For COc1cc(OCCO)ccc1NC(=O)[C@@H]1N[C@@H](CC(C)(C)C)[C@@]2(C(=O)Nc3cc(Cl)ncc32)[C@H]1c1cccc(Cl)c1F (racemic) [Example 117, rac-(2S,3R,4S,5R)-6′-chloro-4-(3-chloro-2-fluorophenyl)-N-(4-(2-hydroxyethoxy)-2-methoxyphenyl)-2-neopentyl-2′-oxo-1′,2′-dihydrospiro[pyrrolidine-3,3′-pyrrolo[3,2-c]pyridine]-5-carboxamide], which IC50 is on record?
The IC50 was 14 nM.

For COc1cc(OCCOC(C)=O)ccc1NC(=O)[C@@H]1N[C@@H](CC(C)(C)C)[C@@]2(C(=O)Nc3cc(Cl)ncc32)[C@H]1c1cccc(Cl)c1F (racemic) [Example 116, rac-2-(4-((2S,3R,4S,5R)-6′-chloro-4-(3-chloro-2-fluorophenyl)-2-neopentyl-2′-oxo-1′,2′-dihydrospiro[pyrrolidine-3,3′-pyrrolo[3,2-c]pyridine]-5-ylcarboxamido)-3-methoxyphenoxy)ethyl acetate], which IC50 is on record?
The IC50 was 12 nM.

How did the IC50 turn out when COC(=O)c1ccc(NC(=O)[C@@H]2N[C@@H](CC(C)(C)C)[C@@]3(C(=O)Nc4cc(Cl)cnc43)[C@H]2c2cccc(Br)c2F)c(OC)c1 (racemic) [Example 66, methyl rac-4-{(2S,3R,4S,5R)-4-(3-bromo-2-fluorophenyl)-6′-chloro-2-neopentyl-2′-oxo-1′,2′-dihydrospiro[pyrrolidine-3,3′-pyrrolo[3,2-b]pyridine]-5-ylcarboxamido}-3-methoxybenzoate] was run?
The IC50 was 1830 nM.

Which IC50 does the source give for COc1cc(C(=O)O)ccc1NC(=O)[C@@H]1N[C@@H](CC(C)(C)C)[C@@]2(C(=O)Nc3cc(O)ncc32)[C@H]1c1cccc(Cl)c1F (racemic) [Example 114, rac-4-((2S,3R,4S,5R)-4-(3-chloro-2-fluorophenyl)-6′-hydroxy-2-neopentyl-2′-oxo-1′,2′-dihydrospiro[pyrrolidine-3,3′-pyrrolo[3,2-c]pyridine]-5-ylcarboxamido)-3-methoxybenzoic acid] here?
Its IC50 is greater than 10000 nM.

Which IC50 does the source give for COc1cc(C(N)=O)ccc1NC(=O)[C@@H]1N[C@@H](CC(C)(C)C)[C@@]2(C(=O)Nc3cc(Cl)cnc32)[C@H]1c1cccc(Cl)c1 (racemic) [Example 63, rac-(2S,3S,4R,5R)-N-(4-carbamoyl-2-methoxyphenyl)-6′-chloro-4-(3-chlorophenyl)-2-neopentyl-2′-oxo-1′,2′-dihydrospiro[pyrrolidine-3,3′-pyrrolo[3,2-b]pyridine]-5-carboxamide] here?
Its IC50 is 14.6 nM.

COC(=O)c1ccc(NC(=O)[C@@H]2N[C@@H](CC(C)(C)C)[C@@]3(C(=O)Nc4ccncc43)[C@H]2c2cccc(Cl)c2F)c(OC)c1 (racemic) [Example 6, methyl rac-4-((2S,3R,4S,5R)-4-(3-chloro-2-fluorophenyl)-2-neopentyl-2′-oxo-1′,2′-dihydrospiro[pyrrolidine-3,3′-pyrrolo[3,2-c]pyridine]-5-ylcarboxamido)-3-methoxybenzoate] was tested. Which IC50 did it give?
The IC50 was 32.4 nM.

How did the IC50 turn out when COC(=O)c1ccc(NC(=O)[C@@H]2N[C@@H](CC(C)(C)C)[C@@]3(C(=O)Nc4cc(F)cnc43)[C@H]2c2cccc(Cl)c2F)c(OC)c1 (racemic) [Example 83, methyl rac-4-((2S,3S,4S,5R)-4-(3-chloro-2-fluorophenyl)-6′-fluoro-2-neopentyl-2′-oxo-1′,2′-dihydrospiro[pyrrolidine-3,3′-pyrrolo[3,2-b]pyridine]-5-ylcarboxamido)-3-methoxybenzoate] was run?
The IC50 was 19.5 nM.

Source: patent US20120046306A1, “Substituted Heteroaryl Spiropyrrolidine MDM2 Antagonists” (priority 2010, published 2012)
